For orientation: melting point means the temperature of the solid-liquid transition.

Structures are written as SMILES.

In a melting point compilation (Tetko et al.) one finds melting point data, which are given here for 109 compounds.

As to `N#Cc1ccc(Cl)c(C(F)(F)F)c1`, the melting point was 66 °C.
The compound `O=C(NCO)c1ccccc1` gave a melting point of 95 °C.
Turning to `O=C(O)Cc1ccccc1I`, the melting point is 116 °C.
The value for `O=S(=O)(Cl)Cc1ccc(F)cc1` was 61 to 63 °C; that for `Ic1cc(I)c(I)c(I)c1I` was 172 °C.
`Nc1ccc(O)c2c1C(=O)c1c(O)ccc(N)c1C2=O` registered a melting point of 300 °C.
Regarding `SC1=NC2(CCCCC2)NN1c1ccccc1`, the melting point is 146 to 149 °C.
In turn, `O=C(O)c1ccc(O)c(C(=O)O)c1` showed a melting point of 310 °C.
In the case of `CN1CCNC(=O)CCSCCSCCC1=O`, the melting point is 115 to 116 °C.
In turn, `CCN(CC)CCOCc1cc(Br)cc(Br)c1OC` gave a melting point below 25 °C.
The result for `Cc1cc(C#N)cc(Cl)c1N` reads 129 °C; that for `NS(=O)(=O)C(F)(F)F`, 118 °C; that for `CC(=O)OC1CCC2(C)C(CCC3(C)C2C(=O)C=C2C4CC(C)(C(=O)O)CCC4(C)CCC23C)C1(C)C` (centres undefined), 323 °C.
In turn, `CN(C)c1ccc(N=Nc2ccc(N=C=S)cc2)cc1` came in with a melting point of 167 to 171 °C.
The result for `COC(=O)C1CC(=O)C(C(=O)OC)CC1=O` (centres undefined) reads 154 to 157 °C; that for `CC(C)(C)C(=O)Oc1ccc([N+](=O)[O-])cc1`, 92 to 96 °C; that for `NC(Cc1cc(F)ccc1F)C(=O)O` (racemic), 252 to 253 °C.
`COc1ccc2nnc(-c3ccc(C(F)(F)F)cc3)n2n1` had a melting point of 142 °C.
As to `CN(C)C(=O)c1ccccc1`, the melting point is 44 °C.
Compound `O=C(O)COCCN1C(=O)c2ccccc2C1=O` had a melting point of 128 °C.
Compound `CCCCCCCCc1ccc(NC(=O)c2ccc(C)cc2)cc1` had a melting point of 113 °C.
As for `O=P(Oc1ccccc1)(Oc1ccccc1)Oc1noc2ccccc12`, the melting point fell in the range of 64 to 68 °C.
As to `Nc1cc(S(=O)(=O)F)ccc1Cl`, the melting point lay within 64 to 68 °C.
Take `CC1=NC2(CCCCC2)[N+]([O-])=C1`: the melting point was in the range of 112 to 116 °C.
The value for `FC(F)(F)c1ccnc(N2CCCNCC2)n1` was 50 to 51 °C; that for `O=C(Cl)c1ccc2c(c1)CCO2` was 49 to 51 °C.
`O=C(NN=C1CCCCC1)C(=O)NN=C1CCCCC1` came in with a melting point of 210 °C.
The result for `N#Cc1cc(F)c(N)cc1F` reads 95 to 97 °C; that for `CCCCc1ccc(NC(=O)c2ccc(CC)cc2)cc1`, 117 °C; that for `S=C=Nc1c(Cl)cc(Cl)cc1Cl`, 74 to 76 °C.
In turn, `CCC1(CC)C(=O)CCNC1=O` yielded a melting point of 102 °C.
In turn, `CCOC(=O)C1=C(C)NC(=O)NC1c1ccc(O)c(OC)c1` (centres undefined) had a melting point of 190 °C.
Take `CSc1ncnc2c1ncn2C1OC(CO)C(O)C1O` (centres undefined): the melting point was 164 °C.
`N#Cc1cccc(C[C@H](NC(=O)OCC2c3ccccc3-c3ccccc32)C(=O)O)c1`: the melting point amounted to 116 °C.
In turn, `c1ccc2cc3cc4ccccc4cc3cc2c1` yielded a melting point of 357 °C.
The value for `CCOC(=O)c1coc(Cl)n1` was 97.5 °C.
With `COC(=O)C(F)(F)C(F)(F)C(F)(F)F`, the melting point was -86 °C.
`O=S(=O)(O)c1ccc(N=Nc2ccc(N=Nc3ccc(S(=O)(=O)O)cc3)cc2)cc1`: the melting point came out at 157 °C.
As for `O=C(O)c1ccc(O)c(O)c1`, the melting point turned out to be 201 °C.
Compound `Cc1c(C)c2c(c3c1CC3=O)CC2=O` displayed a melting point of 161 °C.
The value for `Cc1ncc(C#N)c(N)n1` was 249 to 252 °C; that for `OCC1CCCCN1` (centres undefined) was 69 °C.
The value for `c1ccc(C2=C(c3ccccc3)C(c3ccccc3)C(c3ccccc3)=C2c2ccccc2)cc1` was 254 to 257 °C; that for `ClCCc1ccc(CCCl)cc1` was 47 °C.
The result for `CC12CCC3C(=CCc4cc(O)ccc43)C1CCC2O` (centres undefined) reads 174 °C.
`Cc1nnc(-c2cccc(S(=O)(=O)Cl)c2)o1` returned a melting point of 56 to 59 °C.
As for `Cc1ccc(F)c(O)c1`, the melting point turned out to be 32 °C.
With `S=c1[nH]ccn1-c1ccc(Cl)cc1`, the melting point is 223 to 226 °C.
In turn, `Cc1nc2sccn2c1C(=O)NN` displayed a melting point of 150 °C.
For `NS(=O)(=O)c1ccc(SCCCO)c(F)c1`, the melting point amounted to 110 °C.
The value for `Nc1n[nH]c(N)c1Cc1ccc2c(c1)OCO2` was 169 to 171 °C; that for `Nc1ccccc1C=Cc1cc(/C=C/c2ccccc2)c(N)cc1N` was 146 °C.
Take `O=C(c1ccccc1)C(c1ccccc1)c1cc(Cl)c([N+](=O)[O-])cc1[N+](=O)[O-]` (centres undefined): the melting point came out at 131 °C.
The result for `COc1ccccc1-c1ccc(/C=C2/C=C(CC(C)C)OC2=O)o1` reads 89 °C; that for `CC(=O)OC1(C(C)=O)CCC2(C)C(CCC3C4CCC(O)C4(C)CCC32)C1` (centres undefined), 193 °C.
As for `O=C(Nc1ccc([N+](=O)[O-])cc1)Nc1ccc([N+](=O)[O-])cc1`, the melting point was 312 °C.
The result for `CC(C)(C(=O)O)C(C)(C)C(=O)O` reads 200 °C.
The result for `CC1=CC[C@@H]2[C@@H]3CCC4CC(=O)CC[C@]4(C)[C@H]3CC[C@]12C` (some centres undefined) reads 140 to 141 °C; that for `CC(Oc1ccc(Oc2ccc(Cl)cc2Cl)cc1)C(=O)O` (centres undefined), 120 °C; that for `COc1cccc(N2C(=O)C=CC2=O)c1`, 62 to 66 °C.
`BrC(c1ccccc1)C(Br)c1ccccc1` (centres undefined) displayed a melting point of 239 °C.
`N#Cc1c(-c2ccccc2)c2c(=O)[nH]n(-c3ccccc3)c2[nH]c1=S` came in with a melting point of 142 °C.
Turning to `CC(C)(C)OC(=O)N[C@@H](Cc1ccc(Br)cc1)C(=O)O`, the melting point stood at 118 °C.
On to `CCOC(=O)c1sc(SC)nc1NC(=O)Nc1ccc(Cl)c(Cl)c1`, for which the melting point fell in the range of 158 to 162 °C.
The result for `CCC(=O)c1cccc(Br)c1` reads 40 °C.
Take `O=C(O)c1cc(F)cc(C(F)(F)F)c1`: the melting point lay in the range of 104 to 108 °C.
In the case of `OCC1(CO)CC=CCC1`, the melting point turned out to be 88.5 °C.
`Cc1cn(CCC(=O)O)c2ccccc12` displayed a melting point of 87 to 88 °C.
In the case of `Cn1c(/C(C#N)=N/Nc2cccc(Cl)c2)nc2ccccc21`, the melting point stood at 165 °C.
For `c1ccc(/N=N/c2ccc(-c3ccc(NNc4ccccc4)cc3)cc2)cc1`, the melting point fell in the range of 172 to 173 °C.
`N#CC1(c2ccccc2)Cc2ccccc2C(=O)O1` (centres undefined): the melting point was found to be 141 °C.
The value for `O=[N+]([O-])c1ccccc1OCCOc1ccccc1[N+](=O)[O-]` was 169 °C; that for `COP(=S)(Oc1cc(Cl)c(Br)cc1Cl)c1ccccc1` (centres undefined) was 70.4 °C; that for `Fc1ccc(C2CCNCC2COc2ccc3c(c2)OCO3)cc1` (centres undefined) was 130 °C.
`CCOC=C(C#N)S(=O)(=O)c1ccccc1` yielded a melting point of 74 °C.
The result for `O=C(O)COc1cccc2ccccc12` reads 196 °C; that for `N#CCSc1ccc(Cl)cc1`, 80 °C.
The compound `CCCCCc1ccc(OC(=O)c2ccc(OC(=O)c3ccc(CCCCC)cc3)cc2Cl)cc1` came in with a melting point of 39 to 122 °C.
`NC(=O)C1CC1(Cl)Cl` (centres undefined) displayed a melting point of 148 to 149 °C.
The result for `CCOC(=O)N(c1ccccc1)c1ccccc1` reads 72 °C; that for `CC1=Nc2ccccc2Sc2c1c(=O)n(-c1ccccc1)c1ccccc21`, 231 °C; that for `CC(=O)OC1CC[C@@]2(C)C(CC[C@@H]3[C@@H]2CC[C@@]2(C)[C@H]3CC[C@]2(O)C#Cc2ccccc2)C1` (some centres undefined), 170 to 171 °C.
`O=C1Cc2ccccc21`: the melting point was 14 °C.
The result for `O=C1c2ccccc2C(=O)N1c1nc2ccccc2[nH]1` reads 272 to 275 °C.
The result for `CCCCCCCCCCCCCCCCC(C)CC` (centres undefined) reads 8 °C; that for `O=C(O)C=Cc1cc([N+](=O)[O-])ccc1Cl`, 218 to 222 °C; that for `O=S(=O)(Cl)Cc1ccc(Cl)cc1`, 95 °C.
Take `CC1OC1P(=O)(O)O` (centres undefined): the melting point was 94 °C.
As to `c1ccc2c(c1)ccc1[nH]c3ccccc3c12`, the melting point worked out at 134 °C.
Regarding `Cc1c2ccccc2c(C)c2ccccc12`, the melting point stood at 183 °C.
Turning to `CC12CCC(O)CC1=CCC1C2CCC2(C)C1CCC2(O)C#CCl` (centres undefined), the melting point lay in the range of 175 to 177 °C.
For `O=C(c1ccc(O)cc1)c1ccc(O)cc1`, the melting point turned out to be 223 °C.
For the compound `COc1ccc2c(-c3ccccc3)c(-c3ccccc3)[nH]c2c1`, the melting point is 210 to 214 °C.
The result for `CCN1CCc2c3n(c4ccccc24)C(C(=O)OC)=CCC31` (centres undefined) reads 120 °C; that for `Brc1nc2ccccc2[nH]1`, 200 °C; that for `OC1C(O)C(O)C(O)C(O)C1O` (centres undefined), 230 °C.
`Nc1nc(N)c2nc[nH]c2n1` gave a melting point of 302 °C.
Turning to `CCCCCCCCCCC(C)C(=O)O` (centres undefined), the melting point turned out to be 22 °C.
As to `O=C(NC(=O)c1ccccc1Cl)Nc1ccc(OC(F)(F)F)cc1`, the melting point is 195 °C.
The compound `CCCCC(CC)COC(C)=O` (centres undefined) yielded a melting point of -45 °C.
The result for `C[Si](C)(Cl)C(Cl)Cl` reads -48 °C; that for `CSc1nc2[nH]c(=S)[nH]c(=O)c2n1C`, 289 to 290 °C; that for `COc1ccc(Br)cc1C#N`, 91 °C.
The compound `O=C(O)c1ccc(Oc2ccccn2)cc1` registered a melting point of 174 to 175 °C.
The value for `N#CC1=C(N)OC2=C(CCCC2)C1c1ccccc1` (centres undefined) was 261 °C; that for `Clc1ccccc1C(c1ccccc1)(c1ccccc1)n1ccnc1` was 147 °C; that for `N#CCCC1CCCCCCCCCCC1=O` (centres undefined) was 60 to 61 °C.
Consider `CC(=O)Oc1c(-c2ccccc2)n(C(C)=O)c2cc([N+](=O)[O-])ccc12`, for which the melting point amounted to 178 °C.
On to `COC(=O)c1sc2scc(C)c2c1C`, for which the melting point is 136 to 139 °C.
